Read-outs that look alike come from different tables or passages of the source.
Assays:
IRAK4 = IRAK4 (Homo sapiens (Human), UniProt Q9NWZ3); assay: IRAK4 MSD degradation in OCI-LY10; format: cell-based
Experimental: Degradation of IRAK4 in OCI-LY10 was quantitatively measured using Meso Scale Discovery technology. […] Compounds were then added to the assay plates with a final top concentration of 1 to 10 μM in a 1:3 dilution series with total of 8 doses. The assay plates were then incubated for 4 to 24 hours at 37° C. under 5% CO2. […] To prepare MSD assay plates (Meso Scale Discovery Catalog number L15XA-3), the plates were coated with […] capture antibody (mouse Anti-IRAK4 antibody [2H9], ab119942) in PBS, at 40 μL/well. […] Cell lysates were then added to MSD assay plates and the plates were incubated at room temperature for 1 hour. The plates were then washed 3 times with 150 μL/well TBST buffer and 25 μL/well primary detection antibody (rabbit Anti-IRAK4 antibody [Y279], from Abcam. Catalog number ab32511, […]). The assay plates were then incubated at room temperature for 1 hour, washed 3 times with 150 μL/well TBST buffer and 25 µL/well secondary detection antibody, SULFO-TAG anti-rabbit antibody were added (anti rabbit antibody from Meso Scale Discovery, Catalog number R32AB-1, 1 μg/mL). The assay plates were then incubated at room temperature for 1 hour, washed 3 times with 150 μL/well TB ST buffer, and 150 μL/well MSD reading buffer (Meso Scale Discovery catalog number R92TC-2) was added. The plates were then analyzed by a MSD reader (Meso Scale Discovery, Model Quick Plex SQ 120). The data was then analyzed by software Prism 7.0 from GraphPad and the dose-depended IRAK4 degradation were fit using a three-parameter logistic equation to calculate DC50.

OCI-LY10 = assay: CTG Cell Viability Assay - OCI-LY10; format: cell-based, human; conditions: OCI-LY10, 4 days, read-out: CTG Cell Viability Assay - OCI-LY10: Average external-IC50
Experimental: Compound-mediated viability effect on OCI-LY10 or TMD8 was quantitatively determined using the CellTiter-Glo® Luminescent Cell Viability Assay kit from Promega (Catalog number G7570) following manufacturer's recommended procedures. […] Compounds were then added to the assay plate with final top concentration of 10 μM and 1:3 dilution series with total of 9 doses. The final DMSO concentration was normalized to 0.2%. The assay plates were incubated at 37° C. for 4 days under 5% CO2. Then the assay plate was equilibrated at room temperature for 10 minutes. […] The data was then analyzed by software Prism 7.0 from GraphPad and the dose response curves were fit using a three-parameter logistic equation to calculate IC50.

[1] = OCI-LY10, 4 hrs, MSD, read-out: IRAK4 MSD degradation in OCI-LY10 at 4 hrs: Average external-Abs DC50

Sequence of IRAK4 (Q9NWZ3 whole entry): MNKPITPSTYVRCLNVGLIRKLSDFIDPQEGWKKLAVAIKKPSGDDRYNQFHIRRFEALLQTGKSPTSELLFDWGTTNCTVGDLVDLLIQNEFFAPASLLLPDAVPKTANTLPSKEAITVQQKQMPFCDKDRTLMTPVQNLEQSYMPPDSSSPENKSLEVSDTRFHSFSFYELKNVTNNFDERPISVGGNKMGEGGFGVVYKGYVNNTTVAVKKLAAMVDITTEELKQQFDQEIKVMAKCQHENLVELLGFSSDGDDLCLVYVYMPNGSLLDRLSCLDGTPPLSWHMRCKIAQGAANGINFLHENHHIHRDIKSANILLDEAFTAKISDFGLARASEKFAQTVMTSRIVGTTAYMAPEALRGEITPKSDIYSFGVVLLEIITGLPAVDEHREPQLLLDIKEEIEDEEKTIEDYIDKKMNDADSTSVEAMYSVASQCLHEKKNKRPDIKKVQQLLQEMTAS

Structure (SMILES) | IC50 (OCI-LY10; Homo sapiens, OCI-Ly10, 96 h) [µM] | other results
NC(=O)c1nn([C@H]2CC[C@H](C(=O)NCCOCCOCCNc3cccc4c3C(=O)N(C3CCC(=O)NC3=O)C4=O)CC2)cc1NC(=O)c1coc(-c2ccnc(NCC(F)(F)F)c2)n1 (single isomer, unassigned) [I-13, N-(3-carbamoyl-1-((1r,4r)-4-((2-(2-(2-((2-(2,6-dioxopiperidin-3-yl)-1,3-dioxoisoindolin-4-yl)amino)ethoxy)ethoxy)ethyl)carbamoyl)cyclohexyl)-1H-pyrazol-4-yl)-2-(2-((2,2,2-trifluoroethyl)amino)pyridin-4-yl)oxazole-4-carboxamide] | > 1 | DC50 (IRAK4; [1]): > 1 µM
NC(=O)c1nn([C@H]2CC[C@@H](C(=O)NCCOCCOCCNc3cccc4c3C(=O)N(C3CCC(=O)NC3=O)C4=O)CC2)cc1NC(=O)c1coc(-c2ccnc(NCC(F)(F)F)c2)n1 (single isomer, unassigned) [I-14, N-(3-carbamoyl-1-((1s,4s)-4-((2-(2-(2-((2-(2,6-dioxopiperidin-3-yl)-1,3-dioxoisoindolin-4-yl)amino)ethoxy)ethoxy)ethyl)carbamoyl)cyclohexyl)-1H-pyrazol-4-yl)-2-(2-((2,2,2-trifluoroethyl)amino)pyridin-4-yl)oxazole-4-carboxamide] | 0.1 to 0.5 | DC50 (IRAK4; [1]): 0.01 to 0.1 µM
CN(CCCOCCCc1cccc2c1n(C)c(=O)n2[C@H]1CCC(=O)NC1=O)C[C@H]1CC[C@H](n2cc(NC(=O)c3coc(-c4ccnc(NCC5CC5)c4)n3)c(C(F)F)n2)CC1 (single isomer, unassigned) [I-306] | > 1 | DC50 (IRAK4; [1]): < 0.01 µM
CN(CCCOCCCc1cccc2c1n(C)c(=O)n2[C@@H]1CCC(=O)NC1=O)C[C@H]1CC[C@H](n2cc(NC(=O)c3coc(-c4ccnc(NCC5CC5)c4)n3)c(C(F)F)n2)CC1 (single isomer, unassigned) [I-307] | > 1 | DC50 (IRAK4; [1]): 0.01 to 0.1 µM
CN(C[C@@H]1CN(CCNCc2ccc3c(c2)n(C)c(=O)n3C2CCC(=O)NC2=O)CCO1)C(=O)[C@H]1CC[C@H](n2cc(NC(=O)c3coc(-c4ccnc(NCC5CC5)c4)n3)c(C(F)F)n2)CC1 (stereo partly shown) [I-106] | > 1 | 
CN(C[C@@H]1CN(CCNCc2ccc3c(c2)n(C)c(=O)n3C2CCC(=O)NC2=O)CCO1)C[C@H]1CC[C@H](n2cc(NC(=O)c3coc(-c4ccnc(NCC5CC5)c4)n3)c(C(F)F)n2)CC1 (stereo partly shown) [I-109] | > 1 | 
Cn1c(=O)n(C2CCC(=O)NC2=O)c2ccc(CN3CCN([C@@H]4CCN(C[C@H]5CC[C@H](n6cc(NC(=O)c7coc(-c8ccnc(NCC9CC9)c8)n7)c(C(F)F)n6)CC5)C4)CC3)cc21 (stereo partly shown) [I-110] | > 1 | 
Cn1c(=O)n(C2CCC(=O)NC2=O)c2ccc(C#CC3CCN(C[C@H]4CC[C@H](n5cc(NC(=O)c6coc(-c7ccnc(NCC8CC8)c7)n6)c(C(F)F)n5)CC4)CC3)cc21 (stereo partly shown) [I-111] | > 1 | 
CN(CC1CCC(n2cc(NC(=O)c3coc(-c4ccnc(NCC5CC5)c4)n3)c(C(F)F)n2)CC1)C[C@H]1CN(CCCc2cccc3c2n(C)c(=O)n3C2CCC(=O)NC2=O)CCO1 (stereo partly shown) [I-113] | > 1 | 
CC1C(=O)N(C2CCC(=O)NC2=O)c2cccc(C3CCN(CCCN(C)C[C@H]4CC[C@H](n5cc(NC(=O)c6coc(-c7ccnc(NCC8CC8)c7)n6)c(C(F)F)n5)CC4)CC3)c21 (stereo partly shown) [I-114] |  | IC50 (OCI-LY10): 0.1 to 0.5 µM
CN(CC[C@@H]1CN(CCCc2cccc3c2n(C)c(=O)n3C2CCC(=O)NC2=O)CCO1)C[C@H]1CC[C@H](n2cc(NC(=O)c3coc(-c4ccnc(NCC5CC5)c4)n3)c(C(F)F)n2)CC1 (stereo partly shown) [I-116] | > 1 | 
CN(CC[C@H]1CN(CCCc2cccc3c2n(C)c(=O)n3C2CCC(=O)NC2=O)CCO1)C[C@H]1CC[C@H](n2cc(NC(=O)c3coc(-c4ccnc(NCC5CC5)c4)n3)c(C(F)F)n2)CC1 (stereo partly shown) [I-117] | > 1 | 
Cn1c(=O)n(C2CCC(=O)NC2=O)c2ccc(CCCOCC3CCN(C[C@H]4CC[C@H](n5cc(NC(=O)c6coc(-c7ccnc(NCC8CC8)c7)n6)c(C(F)F)n5)CC4)CC3)cc21 (stereo partly shown) [I-119] | > 1 | 
Cn1c(=O)n(C2CCC(=O)NC2=O)c2ccc(CCCOC3CN(C[C@H]4CC[C@H](n5cc(NC(=O)c6coc(-c7ccnc(NCC8CC8)c7)n6)c(C(F)F)n5)CC4)C3)cc21 (stereo partly shown) [I-121] | > 1 | 
Cn1c(=O)n(C2CCC(=O)NC2=O)c2cccc(CCCOC3CN(C[C@H]4CC[C@H](n5cc(NC(=O)c6coc(-c7ccnc(NCC8CC8)c7)n6)c(C(F)F)n5)CC4)C3)c21 (stereo partly shown) [I-122] | > 1 | 
O=C1CCC(n2c3ccccc3c3c(CCCOC4CCN(CC5CCC(n6cc(NC(=O)c7coc(-c8ccnc(NCC9CC9)c8)n7)c(C(F)F)n6)CC5)CC4)ccnc32)C(=O)N1 (stereo not shown) [I-123] | 0.5 to 1 | 
CN(CCOCCCc1cccc2c1n(C)c(=O)n2C1CCC(=O)NC1=O)C[C@H]1CC[C@H](n2cc(NC(=O)c3coc(-c4ccnc(NCC5CC5)c4)n3)c(C(F)F)n2)CC1 (stereo partly shown) [I-124] | > 1 | 
Cn1c(=O)n(C2CCC(=O)NC2=O)c2cccc(CCCOC3CCN(C[C@H]4CC[C@H](n5cc(NC(=O)c6cnn7ccc(N8CCNCC8)nc67)c(C(F)F)n5)CC4)CC3)c21 (stereo partly shown) [I-125] | > 1 | 
CN(CCCOCC#Cc1ccc2c(c1)n(C)c(=O)n2C1CCC(=O)NC1=O)C[C@H]1CC[C@H](n2cc(NC(=O)c3coc(-c4ccnc(NCC5CC5)c4)n3)c(C(F)F)n2)CC1 (stereo partly shown) [I-126] | > 1 | 
CN(CCOCCCc1ccc2c(c1)n(C)c(=O)n2C1CCC(=O)NC1=O)C[C@H]1CC[C@H](n2cc(NC(=O)c3coc(-c4ccnc(NCC5CC5)c4)n3)c(C(F)F)n2)CC1 (stereo partly shown) [I-128] | > 1 | 
Cn1c(=O)n(C2CCC(=O)NC2=O)c2cccc(CCCOCC(F)CNC(=O)c3cnc(-n4ncc5cc(C#N)cnc54)cc3NC3CC3)c21 (stereo not shown) [I-137] | > 1 | 
Cn1c(=O)n(C2CCC(=O)NC2=O)c2cccc(CN3CCC(CCN4CCC(n5cc(NC(=O)c6coc(-c7ccnc(NCC8CC8)c7)n6)c(C(F)F)n5)CC4)CC3)c21 (stereo not shown) [I-264] |  | DC50 (IRAK4; [1]): < 0.01 µM; DC50 (IRAK4; OCI-LY10, 24 hrs, MSD, read-out: IRAK4 MSD degradation in OCI-LY10 at 24 hrs: Average external-Abs DC50): < 0.01 µM
CN1C(=O)C(C2CCC(=O)NC2=O)c2cccc(CCCOC3CCN(CC4CCC(n5cc(NC(=O)c6cnn7ccc(NC8CCCCC8O)nc67)c(C(F)F)n5)CC4)CC3)c21 (stereo not shown) [I-290] |  | IC50 (OCI-LY10): > 1 µM
O=C1CCC(n2c3ccc(CCCN4CC5(CCN(C(=O)[C@H]6CC[C@H](n7cc(NC(=O)c8cnn9ccc(N%10C[C@H]%11C[C@@H]%10CO%11)nc89)c(C(F)F)n7)CC6)CC5)C4)cc3c3cccnc32)C(=O)N1 (stereo partly shown) [I-388] |  | DC50 (IRAK4; [1]): 0.01 to 0.1 µM
Cn1c(=O)n(C2CCC(=O)NC2=O)c2cccc(-c3ccc4c(cnn4CCOC[C@H]4CC[C@H](n5cc(NC(=O)c6cnn7ccc(N8CCOCC8)nc67)c(C(F)F)n5)CC4)c3)c21 (stereo partly shown) [I-405] | > 1 | 
Cn1c(=O)n(C2CCC(=O)NC2=O)c2cccc(-c3ccc4nn(CCOC[C@H]5CC[C@H](n6cc(NC(=O)c7cnn8ccc(N9CCOCC9)nc78)c(C(F)F)n6)CC5)cc4c3)c21 (stereo partly shown) [I-406] | > 1 | 
O=C1CCC(N2C(=O)c3ccc(NCC4CC5(CCN(C[C@H]6CC[C@H](n7cc(NC(=O)c8cnn9ccc(N%10C[C@H]%11C[C@@H]%10CO%11)nc89)c(C(F)F)n7)CC6)CC5)C4)cc3C2=O)C(=O)N1 (stereo partly shown) [I-556] |  | DC50 (IRAK4; OCI-LY10, 4 hrs, read-out: IRAK4 MSD degradation in OCI-LY10 at 4 hrs: DC50): 0.01 to 0.1 µM; DC50 (IRAK4; OCI-LY10, 24 hrs, read-out: IRAK4 MSD degradation in OCI-LY10 at 24 hrs: DC50): < 0.01 µM
CN1C(=O)CCC(n2c(=O)n(C)c3c(C#CCOC4CCN(C[C@H]5CC[C@H](n6cc(NC(=O)c7cnn8ccc(N9C[C@H]%10C[C@@H]9CO%10)nc78)c(C(F)F)n6)CC5)CC4)cccc32)C1=O (stereo partly drawn) [I-563, N-[3-(difluoromethyl)-1-[4-[[4-[3-[3-methyl-1-(1-methyl-2,6-dioxo-3-piperidyl)-2-oxo-benzimidazol-4-yl]prop-2-ynoxy]-1-piperidyl]methyl]cyclohexyl]pyrazol-4-yl]-5-[(1R,4R)-2-oxa-5-azabicyclo [2.2.1]heptan-5-yl] pyrazolo[1,5-a] pyrimidine-3-carboxamide] |  | IC50 (OCI-LY10; Homo sapiens, 96 h): > 1 µM

— patent US11352350B2, “IRAK degraders and uses thereof” (Kymera Therapeutics, Inc., priority 2018, dated 2022)
